What was measured:
[1] = biological target: alpha-L-fucosidase (Bos taurus); experiment: Compound was tested for inhibitory activity (mixed) against alpha-L-fucosidase from bovine kidney
[2] = biological target: alpha-L-fucosidase (Bos taurus); experiment: Compound was tested for inhibitory activity (competitive) against alpha-L-fucosidase from bovine kidney
[3] = biological target: alpha-L-fucosidase (Bos taurus); experiment: Compound was tested for inhibitory activity against alpha-L-fucosidase from bovine epididymis

Ki [1] [µM]	Ki [2] [µM]	Ki [3] [µM]	Structure (SMILES)
2400	–	–	CC(=O)NC1CC(SC2OC(C)C(O)C(O)C2O)C(CO)OC1O [N-[(3S,5S)-2-Hydroxy-6-hydroxymethyl-5-((2S,4S,5S)-3,4,5-trihydroxy-6-methyl-tetrahydro-pyran-2-ylsulfanyl)-tetrahydro-pyran-3-yl]-acetamide]
4000	–	–	CC1OC(SC2CC(O)C(O)OC2CO)C(O)C(O)C1O [(2S,4S,5S)-2-((3S,5S)-5,6-Dihydroxy-2-hydroxymethyl-tetrahydro-pyran-3-ylsulfanyl)-6-methyl-tetrahydro-pyran-3,4,5-triol]
–	42	84	C[C@@H]1O[C@@H](O)[C@@H](O)[C@H](O)[C@@H]1S [(2R,3S,4S,5S,6S)-5-Mercapto-6-methyl-tetrahydro-pyran-2,3,4-triol]
–	7	11	NCC(O)C(=O)C(=O)C(N)CO (stereo unspecified) [2,6-Diimino-hexane-1,3,4,5-tetraol]
